Measurements taken from ChEMBL document CHEMBL1141697, “Promising core structure for nuclear receptor ligands: design and synthesis of novel estrogen receptor ligands based on diphenylamine skeleton” (Bioorg Med Chem Lett, 2008).
Activity calls are given as the source filed them. No cut-off for these calls is given here.

Test system: MCF7
Assay: Estrogenic activity in human MCF7 cells assessed as cell proliferation after 6 days by WST8 assay relative to 17-beta-estradiol
Format: functional
Settings: not given

| Compound | Activity |
| --- | --- |
| Oc1ccc(N(c2ccccc2)c2ccc(O)cc2)cc1 | 87 |
| O=C(c1ccccc1)N(c1ccc(O)cc1)c1ccc(O)cc1 | 114 |
| CC(=O)N(c1ccc(O)cc1)c1ccc(O)cc1 | 114 |
| Oc1ccc(CN(c2ccc(O)cc2)c2ccc(O)cc2)cc1 | 42 |
| Oc1ccc(N(c2ccc(O)cc2)C2CCCCC2)cc1 | 64 |
| O=S(=O)(c1ccccc1)N(c1ccc(O)cc1)c1ccc(O)cc1 | 98 |
| Oc1ccc(N(Cc2ccccc2)c2ccc(O)cc2)cc1 | 85 |
| CCCCCCN(c1ccc(O)cc1)c1ccc(O)cc1 | 130 |
| Oc1ccc(N(CC2CCCCC2)c2ccc(O)cc2)cc1 | 109 |
| CS(=O)(=O)N(c1ccc(O)cc1)c1ccc(O)cc1 | 213 |
| Oc1ccc(N(CC23CC4CC(CC(Br)(C4)C2)C3)c2ccc(O)cc2)cc1 | 77 |
| O=S(=O)(c1ccc(O)cc1)N(c1ccc(O)cc1)c1ccc(O)cc1 | 99 |
| CC(C)CCN(c1ccc(O)cc1)c1ccc(O)cc1 | 31 |
| O=C(c1ccc(O)cc1)N(c1ccc(O)cc1)c1ccc(O)cc1 | 240 |
| Oc1ccc(N(CCC2CCCCC2)c2ccc(O)cc2)cc1 | 71 |

Test system: MCF7
Assay: Estrogenic activity in human MCF7 cells assessed as cell proliferation after 6 days by WST8 assay
Settings: not given

| Compound | Activity |
| --- | --- |
| Oc1ccc(Nc2ccc(O)cc2)cc1 | inactive |
| CC(C)N(c1ccc(O)cc1)c1ccc(O)cc1 | inactive |
| CN(c1ccc(O)cc1)c1ccc(O)cc1 | inactive |

Species on record: Homo sapiens
Assay: Selectivity ratio of relative binding affinity for human recombinant ERalpha receptor to relative binding affinity for human recombinant ERbeta receptor
Settings: not given

| Compound | Ratio |
| --- | --- |
| Oc1ccc(N(c2ccccc2)c2ccc(O)cc2)cc1 | 1.48 |
| O=C(c1ccccc1)N(c1ccc(O)cc1)c1ccc(O)cc1 | 6.52 |
| Oc1ccc(CN(c2ccc(O)cc2)c2ccc(O)cc2)cc1 | 0.951 |
| Oc1ccc(N(c2ccc(O)cc2)C2CCCCC2)cc1 | 3.8 |
| Oc1ccc(N(Cc2ccccc2)c2ccc(O)cc2)cc1 | 27.7 |
| CCCCCCN(c1ccc(O)cc1)c1ccc(O)cc1 | 0.667 |
| Oc1ccc(N(CC2CCCCC2)c2ccc(O)cc2)cc1 | 7.52 |
| Oc1ccc(N(CC23CC4CC(CC(Br)(C4)C2)C3)c2ccc(O)cc2)cc1 | 1.02 |
| O=S(=O)(c1ccc(O)cc1)N(c1ccc(O)cc1)c1ccc(O)cc1 | 0.011 |
| CC(C)CCN(c1ccc(O)cc1)c1ccc(O)cc1 | 18.1 |
| O=C(c1ccc(O)cc1)N(c1ccc(O)cc1)c1ccc(O)cc1 | 0.188 |
| Oc1ccc(N(CCC2CCCCC2)c2ccc(O)cc2)cc1 | 1.88 |

Test system: MCF7
Assay: Antiestrogenic activity in human MCF7 cells
Format: functional, cell-based
Settings: not given

| Compound | Activity |
| --- | --- |
| Oc1ccc(N(c2ccccc2)c2ccc(O)cc2)cc1 | inactive |
| O=C(c1ccccc1)N(c1ccc(O)cc1)c1ccc(O)cc1 | inactive |
| Oc1ccc(Nc2ccc(O)cc2)cc1 | inactive |
| CC(=O)N(c1ccc(O)cc1)c1ccc(O)cc1 | inactive |
| Oc1ccc(CN(c2ccc(O)cc2)c2ccc(O)cc2)cc1 | inactive |
| Oc1ccc(N(c2ccc(O)cc2)C2CCCCC2)cc1 | inactive |
| O=S(=O)(c1ccccc1)N(c1ccc(O)cc1)c1ccc(O)cc1 | inactive |
| Oc1ccc(N(Cc2ccccc2)c2ccc(O)cc2)cc1 | inactive |
| CC(C)N(c1ccc(O)cc1)c1ccc(O)cc1 | inactive |
| CCCCCCN(c1ccc(O)cc1)c1ccc(O)cc1 | inactive |
| Oc1ccc(N(CC2CCCCC2)c2ccc(O)cc2)cc1 | inactive |
| CS(=O)(=O)N(c1ccc(O)cc1)c1ccc(O)cc1 | inactive |
| CN(c1ccc(O)cc1)c1ccc(O)cc1 | inactive |
| Oc1ccc(N(CC23CC4CC(CC(Br)(C4)C2)C3)c2ccc(O)cc2)cc1 | inactive |
| O=S(=O)(c1ccc(O)cc1)N(c1ccc(O)cc1)c1ccc(O)cc1 | inactive |
| Oc1ccc(N(CC2CC2)c2ccc(O)cc2)cc1 | inactive |
| CC(C)CCN(c1ccc(O)cc1)c1ccc(O)cc1 | inactive |
| O=C(c1ccc(O)cc1)N(c1ccc(O)cc1)c1ccc(O)cc1 | inactive |
| Oc1ccc(N(CCC2CCCCC2)c2ccc(O)cc2)cc1 | inactive |

Molecular target: Estrogen receptor beta (Homo sapiens) (UniProt Q92731)
Assay: Displacement of [2,4,6,7-3H]17beta-estradiol from human recombinant ERbeta receptor by liquid scintillation counter relative to 17-beta-estradiol
Settings: not given

Sequence of Estrogen receptor beta (Homo sapiens) (Q92731 whole entry): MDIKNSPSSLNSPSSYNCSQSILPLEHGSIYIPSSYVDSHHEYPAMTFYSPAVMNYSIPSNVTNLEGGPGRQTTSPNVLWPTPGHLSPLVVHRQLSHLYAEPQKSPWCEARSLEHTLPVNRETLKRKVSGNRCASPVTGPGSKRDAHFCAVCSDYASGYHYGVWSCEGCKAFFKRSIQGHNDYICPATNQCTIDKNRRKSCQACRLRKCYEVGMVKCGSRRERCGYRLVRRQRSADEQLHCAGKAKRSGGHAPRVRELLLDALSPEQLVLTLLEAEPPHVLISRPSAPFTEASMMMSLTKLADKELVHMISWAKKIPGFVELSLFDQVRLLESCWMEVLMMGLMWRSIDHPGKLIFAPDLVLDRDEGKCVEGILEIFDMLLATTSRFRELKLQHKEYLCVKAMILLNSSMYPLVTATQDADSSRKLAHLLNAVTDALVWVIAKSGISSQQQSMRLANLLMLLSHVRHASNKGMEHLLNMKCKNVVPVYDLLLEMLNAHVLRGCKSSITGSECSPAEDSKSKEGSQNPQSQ

| Compound | relative binding affinity (RBA) |
| --- | --- |
| Oc1ccc(N(c2ccccc2)c2ccc(O)cc2)cc1 | 1.91 |
| O=C(c1ccccc1)N(c1ccc(O)cc1)c1ccc(O)cc1 | 1.26 |
| Oc1ccc(Nc2ccc(O)cc2)cc1 | < 0.001 |
| CC(=O)N(c1ccc(O)cc1)c1ccc(O)cc1 | < 0.001 |
| Oc1ccc(CN(c2ccc(O)cc2)c2ccc(O)cc2)cc1 | 4.05 |
| Oc1ccc(N(c2ccc(O)cc2)C2CCCCC2)cc1 | 4.3 |
| O=S(=O)(c1ccccc1)N(c1ccc(O)cc1)c1ccc(O)cc1 | < 0.001 |
| Oc1ccc(N(Cc2ccccc2)c2ccc(O)cc2)cc1 | 18.1 |
| CC(C)N(c1ccc(O)cc1)c1ccc(O)cc1 | < 0.001 |
| CCCCCCN(c1ccc(O)cc1)c1ccc(O)cc1 | 0.102 |
| Oc1ccc(N(CC2CCCCC2)c2ccc(O)cc2)cc1 | 6.7 |
| CS(=O)(=O)N(c1ccc(O)cc1)c1ccc(O)cc1 | < 0.001 |
| CN(c1ccc(O)cc1)c1ccc(O)cc1 | < 0.001 |
| Oc1ccc(N(CC23CC4CC(CC(Br)(C4)C2)C3)c2ccc(O)cc2)cc1 | 0.565 |
| O=S(=O)(c1ccc(O)cc1)N(c1ccc(O)cc1)c1ccc(O)cc1 | 0.004 |
| Oc1ccc(N(CC2CC2)c2ccc(O)cc2)cc1 | < 0.001 |
| CC(C)CCN(c1ccc(O)cc1)c1ccc(O)cc1 | 2.34 |
| O=C(c1ccc(O)cc1)N(c1ccc(O)cc1)c1ccc(O)cc1 | 0.063 |
| Oc1ccc(N(CCC2CCCCC2)c2ccc(O)cc2)cc1 | 6.84 |

Molecular target: T1, Estrogen receptor (Homo sapiens) (UniProt P03372)
T1 sequence (whole entry): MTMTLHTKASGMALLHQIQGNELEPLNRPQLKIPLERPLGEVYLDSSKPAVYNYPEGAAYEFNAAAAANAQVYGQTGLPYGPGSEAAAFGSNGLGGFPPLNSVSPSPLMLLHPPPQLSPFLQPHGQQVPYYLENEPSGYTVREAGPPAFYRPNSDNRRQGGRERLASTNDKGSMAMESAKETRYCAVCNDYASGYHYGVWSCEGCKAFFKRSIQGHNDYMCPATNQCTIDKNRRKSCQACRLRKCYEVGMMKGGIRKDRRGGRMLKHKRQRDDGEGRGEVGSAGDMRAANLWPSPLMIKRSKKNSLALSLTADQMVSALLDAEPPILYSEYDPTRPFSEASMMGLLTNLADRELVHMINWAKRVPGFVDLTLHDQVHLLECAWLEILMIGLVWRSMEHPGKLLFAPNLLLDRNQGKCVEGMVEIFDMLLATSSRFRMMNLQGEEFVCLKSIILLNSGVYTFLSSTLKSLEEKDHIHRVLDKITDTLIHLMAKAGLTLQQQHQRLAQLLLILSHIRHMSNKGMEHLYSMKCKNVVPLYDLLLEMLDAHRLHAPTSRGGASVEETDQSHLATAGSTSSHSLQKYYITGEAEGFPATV
Assay: Displacement of [2,4,6,7-3H]17beta-estradiol from human recombinant ERalpha receptor by liquid scintillation counter relative to 17-beta-estradiol
Settings: not given

| Compound | relative binding affinity (RBA) |
| --- | --- |
| Oc1ccc(N(c2ccccc2)c2ccc(O)cc2)cc1 | 1.29 |
| O=C(c1ccccc1)N(c1ccc(O)cc1)c1ccc(O)cc1 | 0.193 |
| Oc1ccc(Nc2ccc(O)cc2)cc1 | < 0.001 |
| CC(=O)N(c1ccc(O)cc1)c1ccc(O)cc1 | < 0.001 |
| Oc1ccc(CN(c2ccc(O)cc2)c2ccc(O)cc2)cc1 | 4.26 |
| Oc1ccc(N(c2ccc(O)cc2)C2CCCCC2)cc1 | 1.13 |
| O=S(=O)(c1ccccc1)N(c1ccc(O)cc1)c1ccc(O)cc1 | 0.04 |
| Oc1ccc(N(Cc2ccccc2)c2ccc(O)cc2)cc1 | 0.655 |
| CC(C)N(c1ccc(O)cc1)c1ccc(O)cc1 | < 0.001 |
| CCCCCCN(c1ccc(O)cc1)c1ccc(O)cc1 | 0.153 |
| Oc1ccc(N(CC2CCCCC2)c2ccc(O)cc2)cc1 | 0.89 |
| CS(=O)(=O)N(c1ccc(O)cc1)c1ccc(O)cc1 | < 0.001 |
| CN(c1ccc(O)cc1)c1ccc(O)cc1 | < 0.001 |
| Oc1ccc(N(CC23CC4CC(CC(Br)(C4)C2)C3)c2ccc(O)cc2)cc1 | 0.551 |
| O=S(=O)(c1ccc(O)cc1)N(c1ccc(O)cc1)c1ccc(O)cc1 | 0.352 |
| Oc1ccc(N(CC2CC2)c2ccc(O)cc2)cc1 | 0.054 |
| CC(C)CCN(c1ccc(O)cc1)c1ccc(O)cc1 | 0.129 |
| O=C(c1ccc(O)cc1)N(c1ccc(O)cc1)c1ccc(O)cc1 | 0.336 |
| Oc1ccc(N(CCC2CCCCC2)c2ccc(O)cc2)cc1 | 3.64 |

Test system: MCF7
Assay: cells
Settings: Homo sapiens, MCF7, 144 h

| Compound | EC50 |
| --- | --- |
| Oc1ccc(N(c2ccccc2)c2ccc(O)cc2)cc1 | 120 nM |
| O=C(c1ccccc1)N(c1ccc(O)cc1)c1ccc(O)cc1 | 14 nM |
| CC(=O)N(c1ccc(O)cc1)c1ccc(O)cc1 | 43000 nM |
| Oc1ccc(CN(c2ccc(O)cc2)c2ccc(O)cc2)cc1 | 370 nM |
| Oc1ccc(N(c2ccc(O)cc2)C2CCCCC2)cc1 | 590 nM |
| O=S(=O)(c1ccccc1)N(c1ccc(O)cc1)c1ccc(O)cc1 | 63 nM |
| Oc1ccc(N(Cc2ccccc2)c2ccc(O)cc2)cc1 | 67 nM |
| CCCCCCN(c1ccc(O)cc1)c1ccc(O)cc1 | 11 nM |
| Oc1ccc(N(CC2CCCCC2)c2ccc(O)cc2)cc1 | 210 nM |
| CS(=O)(=O)N(c1ccc(O)cc1)c1ccc(O)cc1 | 6900 nM |
| Oc1ccc(N(CC23CC4CC(CC(Br)(C4)C2)C3)c2ccc(O)cc2)cc1 | 11000 nM |
| O=S(=O)(c1ccc(O)cc1)N(c1ccc(O)cc1)c1ccc(O)cc1 | 12 nM |
| CC(C)CCN(c1ccc(O)cc1)c1ccc(O)cc1 | 570 nM |
| O=C(c1ccc(O)cc1)N(c1ccc(O)cc1)c1ccc(O)cc1 | 5.2 nM |
| Oc1ccc(N(CCC2CCCCC2)c2ccc(O)cc2)cc1 | 500 nM |
